Patent US20220105183A1, “MICRO-NANO STRUCTURE FORMED BY SELF-ASSEMBLING ORGANIC SMALL MOLECULE COMPOUND AND USE THEREOF” (Qingdao University of Science and Technology, priority 2018, published 2022)

Tests used:
[1] = DLS particle size / self-assembly of the compounds in aqueous solution; type: physicochemical; conditions: micro-nano structure, 20 μM working solution in deionized water
Description: The term “particle size” refers to the size of particles, also known as “granularity” or “diameter”. When a certain physical characteristic or physical behavior of the measured particle is closest to a homogeneous sphere (or combination) of a certain diameter, the diameter (or combination) of the sphere is taken as the equivalent particle size of the measured particle. The particle size parameter of the micro-nano structure of the present invention is measured by the principle of dynamic light scattering (DLS), specifically measured by a laser particle size analyzer.
Taking the self-assembled micro-nano structure of Compound II-1 as an example, II-1 was dissolved in DMSO (also can be an organic solvent such as ethanol) to prepare a 2 mM storage solution, and a small amount of storage solution was added to deionized water to prepare 20 μM working solution. Took 10 μL and dropped it on copper mesh, observed and analyzed under transmission electron microscope (TEM), cryo-transmission electron microscope. Took 10 μL and dropped it on mica plate, observed and analyzed under atomic force microscope (AFM). In FIGS. 5, A, B, C and D were TEM photographs, cryo-transmission electron microscope photographs, AFM photographs, and AFM analysis data, respectively. According to the photographs and data, II-1 was self-assembled into nanosheets with a diameter of 40-70 nm and a thickness of 3.7-3.9 nm. […]
Among them, the particle size test results of II-12 to II-15 in aqueous solution are shown in FIG. 6, and the results of dynamic light scattering DLS of II-16 to 1-18 are shown in FIG. 7).

[2] = Photothermal stability, repeated 808 nm irradiation and cooling; type: physicochemical; conditions: sample No. 3, 20 μM, 808 nm laser 9 minutes, natural cooling, 5 times
Description: We selected sample No. 3 to test the photothermal stability experiment. As shown in the right figure of FIG. 8, sample No. 3 was irradiated with 808 nm laser for 9 minutes and then the temperature increased from room temperature 30° C. to 62° C., and then allowed to naturally cool down to room temperature, and irradiated with 808 nm laser again for 9 minutes, then naturally cooled down, and repeated for 5 times. […] After 9 minutes of irradiation, the temperature was raised by […], and then returned to room temperature.

HeLa cells = assay: Cell photothermal experiment; type: cell-based
Description: HeLa cells were digested from the culture flask with trypsin, centrifuged, added to a DMEM medium containing 10% serum and 1% double antibody, and mixed well. 20 μL of cells were taken and stained with Compound II-1 (20 μM) for 30 minutes. After taking it out, it was centrifuged and rinsed twice with PBS. After centrifuging, 20 μL of culture medium and 20 μL of trypan blue were added. 20 μL was taken from the mixture to the cell count plate and photographed under fluorescence microscope. In the absence of laser irradiation, bright live cells were observed under the microscope, and the cell survival rate was 92%. When irradiated with 808 nm laser for 6 minutes, almost all the blue dead cells were observed under the microscope, and the cell death rate was as high as 100%. HeLa cells were cultured in 96-well plates, 10^4 cells per well, and live/dead staining after 24 h. The cells were irradiated with an 808 nm laser for 6 minutes, and the photographs were observed under a fluorescent microscope. […] It can be seen that the toxicity of the compound itself is extremely small, but its photothermal effect is particularly lethal to cancer cells, and it has bright prospects in the future clinical application of photothermal treatment of cancer. Other compounds of the present invention also have similar photothermal therapeutic effects.

4T1 cells = assay: Photothermal imaging and photothermal treatment in subcutaneous metastasis model mice; type: in vivo, nude mice
Description: In the experimental group, 200 μL of II-1 (300 μmoL) was injected into the mouse through the tail vein, and the tumor site of the mouse was irradiated with an 808 nm laser for 10 minutes, while taking photos with a photothermal imaging instrument.
The nude mice were divided into 4 groups. In the first group, 200 μL of II-1 was injected into the mouse through the tail vein, and the tumor site of the mouse was irradiated with an 808 nm laser for 5 minutes. In the second group, 200 μL of II-1 (300 μmol) was injected, no laser irradiation. In the third group, saline was injected and laser irradiated for 5 minutes. In the fourth group, saline was injected, no laser irradiation. The tumor volume of each group of mice was measured daily with a vernier caliper, and the recording was continued for 30 days.

[3] = Fluorescence imaging and photothermal treatment in sentinel lymphatic metastasis model mice; type: in vivo
Description: (§1) Cell preparation: The cells in the culture flask were digested with trypsin and placed in a centrifuge tube for use. The supernatant was discarded by centrifugation and counted. Then a large amount of medium was added and it was placed in a foam box to be taken to the company. The supernatant was removed by centrifugation, and about 3.5 mL of serum-free medium was added. It was prepared for injection.
(§2) After that, small animal fluorescence imaging and photothermal therapy can be performed.
(§3) Fluorescence imaging for the small animal was performed on the established mouse metastasis model. Using tail vein injection and intratumoral injection (FIG. 22), fluorescence detection was performed every 1 hour for a total of 5 hours.
(§4) The mice were treated with photothermal therapy after injection of tumor cells on the right hind foot pad with obvious sentinel lymph nodes (about 20 days). In this experiment, mice were randomly divided into 3 groups, each group 5 mice, saline+laser irradiation control group, intratumoral injection+laser irradiation experimental group and tail vein injection+laser irradiation experimental group, respectively.
(§5) After photothermal treatment of the mice, the mice were photographed and their weights were recorded every 5 days. […] After the mice were stained with ink on the lungs on day 20, the lungs of the mice were photographed.

T4 cells = assay: as above; type: in vivo; conditions: for tumor metastasis in the lungs, ink staining: day 20; for temperature at sentinel lymph nodes under laser: 808 nm laser (1.5 W/cm2) 10 minutes
Description: as §1, §2, §3, §4, §5

[4] = Photodynamic effect test with carboxy-H2DCFDA; conditions: 10 μM in water with 25 μM carboxy-H2DCFDA, 808 nm laser 10 minutes
Description: The control group only added carboxy-H2DCFDA compound. Irradiated with 808 nm laser for 10 minutes, and the sample was lowered to room temperature, and its fluorescence emission spectrum (Ex=495 nm, Em=530 nm) was tested. […] It has been verified that other compounds of the present invention have no similar photodynamic effect.

[5] = Group 1: 200 μL tail vein, 808 nm laser 5 minutes
[6] = experimental group, 20 days after the experiment

For `CCN1C(=CC=C2CCCC(C=CC3=C(C#N)C(=C(C#N)C#N)OC3(C)C)=C2Cl)C(C)(C)c2ccccc21` [II-1], the “DLS particle size peak (nm)” value [1] was 104 nm, the “DLS particle size range (nm)” value [1] was 33-266 nm and the “temperature raised by, every time in 5 repeated irradiations” value [2] was 25 °C. For the same molecule, the “temperature reached every time in 5 repeated irradiations” value [2] was “at least 55 °C”, the “dead cells, live/dead staining” value (HeLa cells; HeLa in 96-well plates, 808 nm laser 6 minutes) was 100% and the “live/dead staining, compound only” value (HeLa cells; HeLa in 96-well plates, only the compound added, without laser irradiation) was “the cells were all alive”. For the same molecule, the cell death rate (HeLa cells; HeLa, 20 μM for 30 minutes, 808 nm laser 6 minutes, trypan blue) was 100%, the cell survival rate (HeLa cells; HeLa, 20 μM for 30 minutes, no laser irradiation, trypan blue) was 92% and the “temperature of tumor site under laser irradiation” value (4T1 cells; 200 μL (300 μmoL) tail vein, 808 nm laser 10 minutes) was 60 °C. For the same molecule, the “day on which the tumor ulcer had completely healed” value (4T1 cells; [5]) was 16 days, the “tumor after photothermal treatment” value (4T1 cells; [5]) was “the tumor disappeared after laser irradiation, and there was no recurrence within 20 days” and the body weight (4T1 cells; experimental group and control group) was “no abnormal change in the body weight”. For the same molecule, the “H&E staining of lung and liver” value (4T1 cells; [6]) was “no obvious damage to the lungs and liver”, the “H&E staining of tumor” value (4T1 cells; [6]) was “the tumor cells had undergone apoptosis” and the “growth of tumor volume” value (4T1 cells; group 2: 200 μL (300 μmol), no laser irradiation (stated for control groups 2, 3 and 4 together), in 20 days) was 25 times. For the same molecule, the body weight ([3]; intratumoral injection + laser) was “stable in a healthy state”, the body weight ([3]; tail vein injection + laser) was “decreased on the tenth day” and the “scars at the sentinel lymph nodes over time” value (T4 cells; intratumoral injection + laser) was “obviously healed”. For the same molecule, the “tumor metastasis in the lungs, ink staining” value (T4 cells; intratumoral injection + laser) was “no obvious tumor metastasis”, the “temperature at sentinel lymph nodes under laser” value (T4 cells; intratumoral injection) was “significantly higher than that in the saline injection group” and the “entry into the sentinel lymph node, fluorescence” value (T4 cells; intratumoral injection, detection every 1 hour for 5 hours) was “can obviously enter the sentinel lymph node of mice”. For the same molecule, the “day on which mice died (first)” value (T4 cells; tail vein injection + laser) was 15 days, the “scars at the sentinel lymph nodes over time” value (T4 cells; tail vein injection + laser) was “showed a tendency to heal” and the “tumor metastasis in the lungs, ink staining” value (T4 cells; tail vein injection + laser) was “obvious tumor metastasis”. The “temperature at sentinel lymph nodes under laser” value (T4 cells; tail vein injection) was “significantly higher than that in the saline injection group” and the “production of reactive oxygen radicals (photodynamic effect)” value [4] was “does not produce reactive oxygen radicals (ROS)”.
